26 molecules from US20110028495A1, “THE USE OF 6-HALOGENO-[1,2,4]-TRIAZOLO-[1,5-a]-PYRIMIDINE COMPOUNDS FOR COMBATING PESTS IN AND ON ANIMALS” (priority 2007, published 2011) can be followed below.

The test system of experiment [1] is Cat flea (Ctenocephalides felis). Description: Ingestion assay with Ctenocephalides felis (treated cow blood). The note with it: po, adult C. felis fed treated cow blood, 72 hours post treatment, read-out: EC50 (mortality of C. felis). As for the experimental part:
B.5 Activity Against Cat Flea (Ctenocephalides felis)
B.5.1 Ingestion Assay with Ctenocephalides felis
The compounds were formulated in 100% DMSO and were diluted with fresh cow blood to final testing concentrations of 50 ppm, 12.5 ppm, 3.125 ppm, 0.78 ppm and 0.195 ppm. Ten adult C. felis were loaded into testing cages and exposed to blood containing the test compound for up to 72 hours. Blood was changed at 24 hour intervals until the test was completed and kept at 37° C. for duration of the test. The efficacy of a compound was determined based on mortality of C. felis at 72 hours post treatment.

Experiment [2] concerns Mediterranean fruitfly (Ceratitis capitata). Briefly: Activity against Mediterranean fruitfly (eggs/hatched larvae, microtiter plate). The conditions noted are these: 144 h, eggs sprayed, 6 days, compared to 0% mortality of untreated controls. Here is the method:
B.1 Activity Against Mediterranean Fruitfly (Ceratitis capitata)
The compounds were formulated in 1:3 DMSO:water. 50 to 80 eggs were placed into microtiterplates filled with 0.5% agar-agar and 14% diet in water. The eggs were sprayed with 5 μl of the test solution, the plates were sealed with pierced foils and kept at 27-29° C. and 75-85% humidity under fluorescent light for 6 days. Mortality was assessed on the basis of the agility of the hatched larvae. Tests were replicated 2 times.

The next experiment relates to Caenorhabditis elegans. Description: Activity against Caenorhabditis elegans (L1 larval motility). The note with it: L1 C. elegans, dose response assay, read-out: EC50 (reduction in motility of L1 larvae). As for the experimental part: B.2 Activity Against Caenorhabditis elegans
The compounds were formulated in 100% DMSO and were tested in microtiter plates containing 50 μl nematode growth media, 1% E. coli and 20 L1 C. elegans. The efficacy of a compound was determined based on the motility of the larvae as compared to average motility of control wells containing DMSO only. Compounds with >80% reduction in motility were tested in a dose response assay to determine EC50 values.

The test system of the next experiment is brown dog ticks. Briefly: Efficacy against ticks in dogs (spot-on). It is filed as in vivo, brown dog ticks on dogs. The conditions noted are these: 20 mg/kg, days 9, 16 and 23, compared to the placebo group. The source says:
(§1) B.7 Study to Evaluate Efficacy of Compounds Against Fleas and Ticks in Dogs
(§2) Dogs were infested with 100 cat fleas on days −1, 8, 15, 22, 29, and 36, and 50 brown dog ticks on days −1, 7 14, 21, 28, and 35. Infested dogs receive a treatment of a compound or placebo in the form of spot-on applied at the middle of the neck between the shoulder blades. Live fleas and ticks were removed and counted on days 2, 9, 16, 23, 30, and 37.

For another experiment, the system named is cat fleas. Description: Efficacy against fleas in dogs (spot-on). It is filed as in vivo, cat fleas on dogs. The conditions noted are these: 20 mg/kg, days 9, 16 and 23, compared to the placebo group.
From the text: as §1, §2

The subject of experiment [3] is Yellowfever mosquito (Aedes aegypti). Description: Activity against yellowfever mosquito (neonate larval motility). The conditions noted are these: neonate A. aegypti larvae, dose response assay. Here is the method: B.4. Activity Against Yellowfever Mosquito (Aedes aegypti)
The compounds were formulated in 100% DMSO and were tested in microtiter plates containing 180 ul X Luria Broth media and 10 neonate A. aegypti larvae. The efficacy of a compound was determined based on the motility of the larvae as compared to average motility of control wells containing DMSO only. Compounds with >80% reduction in motility were tested in a dose response assay to determine EC50 values.

Take `CCc1nc2ncnn2c(NC2CCC(C(C)C)CC2)c1Cl` (stereo not shown) [C.I.17]: in experiment [1], the LC50 was less than 50 µg/mL.
Broadly, the mortality is the share of the test organisms that died. For `Cc1nc2ncnn2c(NC(C)c2ccc(OC(F)(F)CF)cc2)c1Cl` (racemic) [C.I.38], the LC50 in experiment [1] is less than 50 µg/mL. The mortality at 2500 ppm in experiment [2] was more than 75%.
`CCc1nc2ncnn2c(N[C@@H](C)c2ccc(Cl)cc2)c1Cl` [C.I.22] came in with a mortality at 2500 ppm in experiment [2] of more than 75%.
By EC50 is commonly meant the concentration giving half of the maximal effect. As to `Cc1nc2ncnn2c(NCc2ccc(Oc3ccc(Cl)c(Cl)c3)cc2)c1Cl` [C.I.12], the EC50 in the experiment with Caenorhabditis elegans was less than 10 µg/mL.
Turning to `Cc1nc2ncnn2c(NC2CCC(C(C)C)CC2)c1Cl` (stereo not shown) [C.I.2], the EC50 in the experiment on Caenorhabditis elegans was less than 10 µg/mL.
Consider `Cc1nc2ncnn2c(NC2CCC(C)CC2)c1Cl` (stereo not shown) [C.I.1], for which, in the experiment on Caenorhabditis elegans, the EC50 was less than 10 µg/mL.
Consider `Cc1nc2ncnn2c(NCc2ccc(Oc3ccc(Br)cc3)cc2)c1Cl` [C.I.11], for which the LC50 in experiment [1] was less than 50 µg/mL. Besides, the EC50 in the experiment on Caenorhabditis elegans was less than 10 µg/mL.
As for `CCc1nc2ncnn2c(N[C@H]2CC[C@@H](C(C)(C)C)CC2)c1Cl` [C.I.20], in experiment [1], the LC50 is less than 50 µg/mL. The efficacy against ticks with brown dog ticks is listed as more than 80%. The efficacy against fleas in the experiment with cat fleas is on record as more than 80%.
Take `CCc1nc2ncnn2c(NC(C)c2ccc(OC(F)(F)CF)cc2)c1Cl` (racemic) [C.I.49]: the mortality at 2500 ppm in experiment [2] was more than 75%.
As to `CCc1nc2ncnn2c(N[C@@H](C)c2cccc(OCc3ccccc3)c2)c1Cl` [C.I.58], in the experiment with Caenorhabditis elegans, the half-maximal effective concentration (EC50) is less than 10 µg/mL.
On to `Cc1nc2ncnn2c(N[C@@H](C)c2ccc(OC(F)(F)C(F)F)cc2)c1Cl` [C.I.40], for which, in the experiment with Caenorhabditis elegans, the EC50 was less than 10 µg/mL.
For `CCc1nc2ncnn2c(N[C@H]2CC[C@@H](CCC(F)(F)F)CC2)c1Cl` [C.I.45], in the experiment on Caenorhabditis elegans, the 50% effective concentration (EC50) is less than 10 µg/mL.
In the case of `CCc1nc2ncnn2c(N[C@@H](C)c2ccc(Br)cc2)c1Cl` [C.I.23], the concentration giving a half-maximal response (EC50) in the experiment with Caenorhabditis elegans was less than 10 µg/mL.
Molecule `CCc1nc2nc(C)nn2c(N[C@H]2CC[C@@H](C(C)(C)C)CC2)c1Cl` [C.I.55] came in with a mortality at 2500 ppm in experiment [2] of more than 75%.
As to `CCc1nc2ncnn2c(N[C@@H](C)c2ccc(OC(F)F)cc2)c1Cl` [C.I.31], the LC50 in experiment [1] was less than 50 µg/mL. Also, the “EC50 (reduction in motility of larvae)” value in experiment [3] is less than 1 ppm.
In experiment [2], `CCc1nc2ncnn2c(NC(CC)c2ccc(OC(F)(F)C(F)C(F)(F)F)cc2)c1Cl` (stereo not shown) [C.I.53] returned a mortality at 2500 ppm of more than 75%.
Consider `CCC(C)[C@H]1CC[C@@H](Nc2c(Cl)c(C)nc3ncnn23)CC1` (stereo partly shown) [C.I.5], for which the LC50 in experiment [1] was less than 50 µg/mL.
Regarding `CCc1nc2ncnn2c(NC(C)c2ccc(-c3ccccc3)cc2)c1Cl` (racemic) [C.I.59], in the experiment on Caenorhabditis elegans, the EC50 is less than 10 µg/mL.
Take `CCc1nc2nc([S+](C)[O-])nn2c(N[C@@H](C)c2ccc(C)cc2)c1Cl` (stereo partly shown) [C.I.56]: in the experiment on Caenorhabditis elegans, the EC50 is less than 10 µg/mL.
The same measure, in the same setting: the value for `CCc1nc2ncnn2c(N[C@H]2CC[C@@H](C(F)(C(F)(F)F)C(F)(F)F)CC2)c1Cl` [C.I.46] was less than 10 µg/mL.
As for `CCC(Nc1c(Cl)c(C)nc2ncnn12)c1ccc(OC(F)(F)C(F)C(F)(F)F)cc1` (stereo not shown) [C.I.43], the EC50 in the experiment with Caenorhabditis elegans is less than 10 µg/mL. The mortality at 2500 ppm in experiment [2] is more than 75%.
As to `Cc1nc2ncnn2c(N[C@H]2CC[C@@H](C(F)(C(F)(F)F)C(F)(F)F)CC2)c1Cl` [C.I.34], in experiment [1], the LC50 is less than 50 µg/mL. Also, in the experiment with Caenorhabditis elegans, the EC50 was less than 10 µg/mL.
As to `CCc1nc2ncnn2c(NCCc2ccc(OC(F)(F)F)cc2)c1Cl` [C.I.32], in the experiment with Caenorhabditis elegans, the EC50 was less than 10 µg/mL.
As for `CCc1nc2ncnn2c(NC2CCC(C(C)CC)CC2)c1Cl` (stereo not shown) [C.I.18], the LC50 in experiment [1] is less than 50 µg/mL.
Consider `Cc1nc2ncnn2c(NCc2ccc(Oc3ccc(Cl)cc3)cc2)c1Cl` [C.I.10], for which, in experiment [1], the LC50 is less than 50 µg/mL. Also, in the experiment with Caenorhabditis elegans, the 50% effective concentration (EC50) was less than 10 µg/mL.
As to `Cc1nc2ncnn2c(N[C@@H](C)c2ccc3ccccc3c2)c1Cl` [C.I.37], the LC50 in experiment [1] is less than 50 µg/mL.
